# From US20250351832A1, “PHYTOCHEMICALS AS BIOPESTICIDES AND BIOSTIMULANTS” (KAY BEE BIO ORGANICS PVT. LTD., priority 2024, published 2025)
# “Also recorded” adds a separate entry of the source. Like-named read-outs stand apart in the source and are kept apart here.
# Experiments:
# Mealy Bug [1] = settings: mealy bug on cotton plants, green house, dose 1 ml/gm/lit. spray; for % Mortality at 48 Hrs. / Total No. of dead insect at 48 Hrs.: 48 hrs after application; for % Corrected Mortality at 48 Hrs.: corrected for water control
# Helicoverpa armigera [2] = settings: Helicoverpa armigera 3rd instar on chickpea plants, dose 1 ml/gm/lit. spray; for % Mortality at 72 Hrs.: 72 hrs after application; for % Corrected Mortality at 72 Hrs.: corrected for water control
# Mite [3] = settings: mite on okra plants, green house, dose 1 ml/gm/lit. spray; for % Mortality at 48 Hrs. / Total No. of dead insect at 48 Hrs.: 48 hrs after application; for % Corrected Mortality at 48 Hrs.: corrected for water control
# Aphid [4] = settings: Dose 1 ml/gm/lit.; for Total No. of dead insect at 48 Hrs.: 10 insects/treatment, 4 replications, cotton leaves
# Spodoptera litura [5] = experiment: whole plant or invertebrate; settings: 72 h
# Aphid [6] = settings: Aphids on cotton plants, green house; dose 1 ml/gm/lit.; 10 insects/plant, 10 plants/treatment; 48 hrs
# Mealy Bug [7] = settings: Mealy Bug on cotton leaves, dose 1 ml/gm/lit., 48 Hrs.; for Total No. of dead insect at 48 Hrs.: 10 insects/treatment, 4 replications; for % Corrected Mortality at 48 Hrs.: corrected for water control
# Spodoptera litura [8] = settings: Spodoptera litura on castor leaves; dose 1 ml/gm/lit.; 10 insects/treatment; 72 hrs after application
# Thrips [9] = settings: thrips on cotton plants, greenhouse, dose 1 ml/gm/lit. spray; for % Mortality at 48 Hrs. / Total No. of dead insect at 48 Hrs.: 48 hrs after application; for % Corrected Mortality at 48 Hrs.: corrected for water control
# chili seedlings = experiment: Response of chili plants, greenhouse growth (Ex. 31); assay type: in vivo; settings: chili seedlings, dose 1 ml/gm/lit; for CCI 5th Day / Plant Height (cm) 5th Day: 5th day after application; for CCI 10th Day / Plant Height (cm) 10th Day: 10th day after application; for CCI % Increase over pre on 10th Day / Plant Height % Increase over pre on 10th Day / Root Lenght (cm) 10th Day / Stem Girth % Increase over pre on 10th Day / Root Lenght % Increase over control: 10th day; for Root Lenght % Increase over control: vs water control
# Spodoptera litura [10] = settings: Spodoptera litura 3rd instar on cabbage plants, dose 1 ml/gm/lit. spray; for % Mortality at 72 Hrs.: 72 hrs after application; for % Corrected Mortality at 72 Hrs.: corrected for water control
# Mite [11] = settings: Dose 1 ml/gm/lit.; for Total No. of dead insect at 48 Hrs.: 10 insects/treatment, 4 replications, okra leaves
# Thrips [12] = experiment: whole plant or invertebrate; settings: in Gossypium hirsutum, 48 h
# [13] = cited from earlier work; for Phytotonic Effect: Table 13, effect on plants, descriptive
# Aphid [14] = experiment: whole plant or invertebrate; settings: 48 h
# Thrips [15] = settings: Thrips on cotton leaves; dose 1 ml/gm/lit.; 10 insects/treatment; 48 hrs after application
# Alternaria alternata [16] = experiment: In vitro poisoned food technique against fungus (Ex. 20); assay type: cell-based; settings: poisoned food technique, PDA medium, dose 1 ml/gm/lit., after seven days; for inhibition of growth at 1 mL or g/L: vs untreated control, read-out: % Inhibition of growth
# Helicoverpa armigera [17] = settings: Helicoverpa armigera on okra fruits, dose 1 ml/gm/lit., 72 Hrs.; for Total No. of dead insect at 72 Hrs.: 10 insects/treatment, 4 replications; for % Corrected Mortality at 72 Hrs.: corrected for water control
# tomato seedlings = experiment: Response of tomato plants, greenhouse growth (Ex. 30); assay type: in vivo; settings: tomato seedlings, dose 1 ml/gm/lit; for Plant Height 5th Day / Stem Girth 5th Day / CCI 5th Day: 5th day after application; for Plant Height 10th Day / Stem Girth 10th Day / CCI 10th Day: 10th day after application; for Plant Height % Increase over pre on 10th Day / Stem Girth % Increase over pre on 10th Day / CCI % Increase over pre on 10th Day / Root Length (cm) 10th Day / Root Length % Increase over control: 10th day; for Root Length % Increase over control: vs water control
# Alternaria alternata [18] = experiment: Alternaria leaf spot/blight on inoculated tomato plants (Ex. 28); assay type: in vivo; settings: tomato plants, Alternaria alternata; after 7 days; dose 1 ml/gm/lit
# [19] = read-out: % Corrected Mortality at 72 Hrs.
# [20] = read-out: % Mortality at 72 Hrs.
# [21] = read-out: % Corrected Mortality at 48 Hrs.
# [22] = read-out: % Mortality at 48 Hrs.
# [23] = Table 13, descriptive, no test described
smiles,measurement,setting,value
"CCCCCCCCCC(C)=O [Embodiment 2-undecanone, 2-undecanone]",% Mortality at 48 Hrs.,Mealy Bug [1],57.50%
same,Total No. of dead insect at 48 Hrs.,Mealy Bug [1],57.50
same,% Corrected Mortality at 48 Hrs.,Mealy Bug [1],52.78%
same,% Mortality at 72 Hrs.,Helicoverpa armigera [2],52.50%
same,% Corrected Mortality at 72 Hrs.,Helicoverpa armigera [2],52.50%
same,% Mortality at 48 Hrs.,Mite [3],27.50%
same,Total No. of dead insect at 48 Hrs.,Mite [3],27.50
same,% Corrected Mortality at 48 Hrs.,Mite [3],23.68%
same,Total No. of dead insect at 48 Hrs.,Aphid [4],6.75
same,% Corrected Mortality at 48 Hrs.,Aphid [4]; 48 hrs,62.86%
same,mortality at 1 mL or g/L,Spodoptera litura [5]; [19],36.8%
same,mortality at 1 mL or g/L,Spodoptera litura [5]; [20],40%
same,Total No. of dead insect at 48 Hrs.,Aphid [6],67.50
same,Total No. of dead insect at 48 Hrs.,Mealy Bug [7],5.50
same,% Mortality at 48 Hrs.,Mealy Bug [7],55.00%
same,% Corrected Mortality at 48 Hrs.,Mealy Bug [7],52.63%
same,Total No. of dead insect at 72 Hrs.,Spodoptera litura [8],4.00
same,% Mortality at 48 Hrs.,Thrips [9],47.50%
same,Total No. of dead insect at 48 Hrs.,Thrips [9],47.50
same,% Corrected Mortality at 48 Hrs.,Thrips [9],41.67%
same,CCI 5th Day,chili seedlings,13.57
same,Plant Height (cm) 5th Day,chili seedlings,5.97 cm
same,CCI % Increase over pre on 10th Day,chili seedlings,70.42%
same,Plant Height % Increase over pre on 10th Day,chili seedlings,68.11%
same,Root Lenght (cm) 10th Day,chili seedlings,4.44 cm
same,Stem Girth % Increase over pre on 10th Day,chili seedlings,60.61%
same,CCI 10th Day,chili seedlings,15.15
same,Plant Height (cm) 10th Day,chili seedlings,6.59 cm
same,Root Lenght % Increase over control,chili seedlings,62.21%
same,% Mortality at 72 Hrs.,Spodoptera litura [10],42.50%
same,% Corrected Mortality at 72 Hrs.,Spodoptera litura [10],39.47%
same,Total No. of dead insect at 48 Hrs.,Mite [11],3.00
same,% Corrected Mortality at 48 Hrs.,Mite [11],24.32%
same,% Mortality at 48 Hrs.,Mite [11],30.00%
same,mortality at 1 mL or g/L,Thrips [12]; [21],42.9%
same,mortality at 1 mL or g/L,Thrips [12]; [22],50%
same,Antifungal Activity - Mode of action,[13]; [23],Antifungal and repellent
same,Bactericidal Activity - Mode of action,[13]; [23],Moderate anti-bacterial
same,Insecticidal Activities - Mode of action,[13]; [23],"Insecticidal action,"
same,Phytotonic Effect,[13],Increasing root
same,mortality at 1 mL or g/L,Aphid [14]; [21],61.8%
same,mortality at 1 mL or g/L,Aphid [14]; [22],67.5%
same,Total No. of dead insect at 48 Hrs.,Thrips [15],5.00
same,Mean colony Diameter (mm),Alternaria alternata [16],52.00 mm
same,inhibition of growth at 1 mL or g/L,Alternaria alternata [16],40.9%
same,Total No. of dead insect at 72 Hrs.,Helicoverpa armigera [17],5.50
same,% Mortality at 72 Hrs.,Helicoverpa armigera [17],55.00%
same,% Corrected Mortality at 72 Hrs.,Helicoverpa armigera [17],55.00%
same,Plant Height 5th Day,tomato seedlings,6.48 cm
same,Stem Girth 5th Day,tomato seedlings,1.61 mm
same,Plant Height 10th Day,tomato seedlings,7.56 cm
same,Stem Girth 10th Day,tomato seedlings,2.40 mm
same,Plant Height % Increase over pre on 10th Day,tomato seedlings,40.52%
same,Stem Girth % Increase over pre on 10th Day,tomato seedlings,68.29%
same,CCI 5th Day,tomato seedlings,13.42
same,CCI % Increase over pre on 10th Day,tomato seedlings,30.95%
same,Root Length (cm) 10th Day,tomato seedlings,4.54 cm
same,CCI 10th Day,tomato seedlings,15.23
same,Root Length % Increase over control,tomato seedlings,36.48%
same,% Disease reduction over Control,Alternaria alternata [18],58.68%
"CC12CCC(CC1)C(C)(C)O2 [1,8 cineole]",% Mortality at 48 Hrs.,Mealy Bug [1],45.00%
same,Total No. of dead insect at 48 Hrs.,Mealy Bug [1],45.00
same,% Corrected Mortality at 48 Hrs.,Mealy Bug [1],38.89%
same,% Mortality at 72 Hrs.,Helicoverpa armigera [2],52.50%
same,% Corrected Mortality at 72 Hrs.,Helicoverpa armigera [2],52.50%
same,% Mortality at 48 Hrs.,Mite [3],22.50%
same,Total No. of dead insect at 48 Hrs.,Mite [3],22.50
same,% Corrected Mortality at 48 Hrs.,Mite [3],18.42%
same,Total No. of dead insect at 48 Hrs.,Aphid [4],6.50
same,% Corrected Mortality at 48 Hrs.,Aphid [4]; 48 hrs,60.00%
same,% Mortality at 48 Hrs.,Aphid [4]; 48 hrs,65.00%
same,mortality at 1 mL or g/L,Spodoptera litura [5]; [19],57.9%
same,mortality at 1 mL or g/L,Spodoptera litura [5]; [20],60%
same,Total No. of dead insect at 48 Hrs.,Aphid [6],62.50
same,Total No. of dead insect at 48 Hrs.,Mealy Bug [7],5.50
same,% Mortality at 48 Hrs.,Mealy Bug [7],55.00%
same,% Corrected Mortality at 48 Hrs.,Mealy Bug [7],52.63%
same,Total No. of dead insect at 72 Hrs.,Spodoptera litura [8],6.00
same,% Mortality at 48 Hrs.,Thrips [9],67.50%
same,Total No. of dead insect at 48 Hrs.,Thrips [9],67.50
same,% Corrected Mortality at 48 Hrs.,Thrips [9],63.89%
same,CCI 5th Day,chili seedlings,9.69
same,Plant Height (cm) 5th Day,chili seedlings,6.99 cm
same,CCI % Increase over pre on 10th Day,chili seedlings,42.63%
same,Plant Height % Increase over pre on 10th Day,chili seedlings,49.60%
same,Root Lenght (cm) 10th Day,chili seedlings,3.26 cm
same,Stem Girth % Increase over pre on 10th Day,chili seedlings,44.88%
same,CCI 10th Day,chili seedlings,12.58
same,Plant Height (cm) 10th Day,chili seedlings,7.54 cm
same,Root Lenght % Increase over control,chili seedlings,19.07%
same,% Mortality at 72 Hrs.,Spodoptera litura [10],70.00%
same,% Corrected Mortality at 72 Hrs.,Spodoptera litura [10],68.42%
same,Total No. of dead insect at 48 Hrs.,Mite [11],2.50
same,% Corrected Mortality at 48 Hrs.,Mite [11],18.92%
same,% Mortality at 48 Hrs.,Mite [11],25.00%
same,mortality at 1 mL or g/L,Thrips [12]; [21],65.7%
same,mortality at 1 mL or g/L,Thrips [12]; [22],70%
same,Phytotonic Effect,[13],Boost chlorophyll; also recorded: Trigger the nutrition
same,mortality at 1 mL or g/L,Aphid [14]; [21],55.9%
same,mortality at 1 mL or g/L,Aphid [14]; [22],62.5%
same,Total No. of dead insect at 48 Hrs.,Thrips [15],7.00
same,Mean colony Diameter (mm),Alternaria alternata [16],72.00 mm
same,inhibition of growth at 1 mL or g/L,Alternaria alternata [16],18.2%
same,Total No. of dead insect at 72 Hrs.,Helicoverpa armigera [17],5.50
same,% Mortality at 72 Hrs.,Helicoverpa armigera [17],55.00%
same,% Corrected Mortality at 72 Hrs.,Helicoverpa armigera [17],55.00%
same,Plant Height 5th Day,tomato seedlings,6.84 cm
same,Stem Girth 5th Day,tomato seedlings,1.74 mm
same,Plant Height 10th Day,tomato seedlings,7.53 cm
same,Stem Girth 10th Day,tomato seedlings,2.16 mm
same,Plant Height % Increase over pre on 10th Day,tomato seedlings,29.60%
same,Stem Girth % Increase over pre on 10th Day,tomato seedlings,58.82%
same,CCI 5th Day,tomato seedlings,13.55
same,CCI % Increase over pre on 10th Day,tomato seedlings,26.08%
same,Root Length (cm) 10th Day,tomato seedlings,4.07 cm
same,CCI 10th Day,tomato seedlings,14.55
same,Root Length % Increase over control,tomato seedlings,22.24%
same,% Disease reduction over Control,Alternaria alternata [18],46.28%
